Assays:
[1] = target: T1, Amine oxidase [flavin-containing] A (Homo sapiens, UniProt P21397); assay type: functional
T1 sequence (P21397 whole entry): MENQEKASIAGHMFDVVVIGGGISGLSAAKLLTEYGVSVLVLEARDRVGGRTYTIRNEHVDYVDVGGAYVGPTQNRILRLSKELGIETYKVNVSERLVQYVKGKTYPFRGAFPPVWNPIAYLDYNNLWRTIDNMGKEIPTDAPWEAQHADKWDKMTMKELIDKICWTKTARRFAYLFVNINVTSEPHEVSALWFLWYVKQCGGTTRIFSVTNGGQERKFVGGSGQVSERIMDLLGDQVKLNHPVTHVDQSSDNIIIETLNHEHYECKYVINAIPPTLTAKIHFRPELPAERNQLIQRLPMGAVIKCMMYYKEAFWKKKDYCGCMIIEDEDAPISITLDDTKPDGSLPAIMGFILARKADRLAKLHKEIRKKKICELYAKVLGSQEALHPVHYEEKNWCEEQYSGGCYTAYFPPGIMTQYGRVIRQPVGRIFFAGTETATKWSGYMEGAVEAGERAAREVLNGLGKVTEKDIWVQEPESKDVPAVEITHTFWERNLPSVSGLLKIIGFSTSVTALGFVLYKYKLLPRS

[2] = target: 3',5'-cyclic-AMP phosphodiesterase 4A (Homo sapiens, UniProt P27815); assay type: functional
[3] = target: T2, Prostaglandin G/H synthase 1 (Homo sapiens, UniProt P23219); assay type: functional
Estrogen receptor = target: T3, Estrogen receptor (Homo sapiens, UniProt P03372)
T3 sequence (P03372 whole entry): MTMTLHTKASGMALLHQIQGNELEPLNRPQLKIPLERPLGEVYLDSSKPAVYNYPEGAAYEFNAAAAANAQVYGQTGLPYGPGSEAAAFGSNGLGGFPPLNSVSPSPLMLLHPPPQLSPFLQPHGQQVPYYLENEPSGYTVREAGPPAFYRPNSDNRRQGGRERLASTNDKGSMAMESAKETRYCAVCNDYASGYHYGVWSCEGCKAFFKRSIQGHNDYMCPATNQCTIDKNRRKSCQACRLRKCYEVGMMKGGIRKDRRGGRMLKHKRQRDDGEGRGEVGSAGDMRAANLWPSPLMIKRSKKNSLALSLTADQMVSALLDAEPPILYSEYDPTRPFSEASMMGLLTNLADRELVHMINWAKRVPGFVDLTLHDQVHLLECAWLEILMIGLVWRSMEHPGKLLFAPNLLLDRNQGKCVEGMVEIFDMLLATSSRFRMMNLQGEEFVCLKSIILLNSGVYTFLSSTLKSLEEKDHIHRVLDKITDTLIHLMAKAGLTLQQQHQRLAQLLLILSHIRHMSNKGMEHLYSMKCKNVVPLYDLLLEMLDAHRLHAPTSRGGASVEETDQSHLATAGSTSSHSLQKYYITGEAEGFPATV

[4] = target: Sodium-dependent noradrenaline transporter (Homo sapiens, UniProt P23975)
[5] = target: T2, Prostaglandin G/H synthase 1; assay type: functional; remark: listed apart in the source
[6] = target: 5-hydroxytryptamine receptor 2B (Homo sapiens, UniProt P41595); assay type: functional, cell-based
[7] = target: Sodium-dependent serotonin transporter (Homo sapiens, UniProt P31645)
[8] = target: T4, Muscarinic acetylcholine receptor M2 (Homo sapiens, UniProt P08172)
T4 sequence (P08172 whole entry): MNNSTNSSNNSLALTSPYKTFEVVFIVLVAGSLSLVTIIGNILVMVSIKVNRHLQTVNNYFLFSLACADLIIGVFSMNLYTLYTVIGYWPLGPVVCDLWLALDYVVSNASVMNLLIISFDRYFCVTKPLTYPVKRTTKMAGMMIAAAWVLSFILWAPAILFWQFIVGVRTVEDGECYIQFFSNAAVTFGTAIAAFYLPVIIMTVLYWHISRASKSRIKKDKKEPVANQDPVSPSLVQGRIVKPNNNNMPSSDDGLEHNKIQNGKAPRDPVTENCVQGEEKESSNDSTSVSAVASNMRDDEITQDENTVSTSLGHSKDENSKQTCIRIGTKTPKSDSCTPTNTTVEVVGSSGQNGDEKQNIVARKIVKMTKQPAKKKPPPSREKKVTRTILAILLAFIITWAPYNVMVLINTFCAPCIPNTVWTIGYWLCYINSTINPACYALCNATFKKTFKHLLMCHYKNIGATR

Mu-type opioid receptor = Mu-type opioid receptor (Homo sapiens, UniProt P35372)
[9] = target: T5, 5-hydroxytryptamine receptor 1A (Homo sapiens, UniProt P08908)
T5 sequence (P08908 whole entry): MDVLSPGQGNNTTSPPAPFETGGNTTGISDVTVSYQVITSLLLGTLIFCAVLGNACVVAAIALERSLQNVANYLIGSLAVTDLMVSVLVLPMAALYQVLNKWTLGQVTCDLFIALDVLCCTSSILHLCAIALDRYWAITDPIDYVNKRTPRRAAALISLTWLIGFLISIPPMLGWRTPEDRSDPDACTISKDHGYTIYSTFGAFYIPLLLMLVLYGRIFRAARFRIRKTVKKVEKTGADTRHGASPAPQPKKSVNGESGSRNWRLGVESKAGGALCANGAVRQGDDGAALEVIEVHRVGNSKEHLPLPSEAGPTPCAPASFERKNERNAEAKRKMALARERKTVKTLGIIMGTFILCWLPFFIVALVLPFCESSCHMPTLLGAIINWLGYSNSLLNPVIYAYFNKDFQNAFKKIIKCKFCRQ

Histamine H3 receptor = Histamine H3 receptor (Homo sapiens, UniProt Q9Y5N1)
[10] = target: T6, Alpha-1A adrenergic receptor (Homo sapiens, UniProt P35348); assay type: functional, cell-based
T6 sequence (P35348 whole entry): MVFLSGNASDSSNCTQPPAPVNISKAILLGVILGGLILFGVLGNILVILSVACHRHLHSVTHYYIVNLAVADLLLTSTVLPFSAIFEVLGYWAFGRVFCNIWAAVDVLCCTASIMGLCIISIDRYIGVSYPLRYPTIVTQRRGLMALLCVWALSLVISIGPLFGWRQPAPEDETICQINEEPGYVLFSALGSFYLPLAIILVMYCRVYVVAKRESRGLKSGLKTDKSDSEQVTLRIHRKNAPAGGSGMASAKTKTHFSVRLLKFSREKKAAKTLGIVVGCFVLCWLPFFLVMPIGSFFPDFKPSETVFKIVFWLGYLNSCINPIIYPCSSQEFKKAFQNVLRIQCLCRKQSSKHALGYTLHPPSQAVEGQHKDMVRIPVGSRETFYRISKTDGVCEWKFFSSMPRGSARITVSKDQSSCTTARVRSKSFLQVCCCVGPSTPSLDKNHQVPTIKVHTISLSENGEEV
Further: assay procedure not described here.

Sequence of Sodium-dependent serotonin transporter (P31645 whole entry): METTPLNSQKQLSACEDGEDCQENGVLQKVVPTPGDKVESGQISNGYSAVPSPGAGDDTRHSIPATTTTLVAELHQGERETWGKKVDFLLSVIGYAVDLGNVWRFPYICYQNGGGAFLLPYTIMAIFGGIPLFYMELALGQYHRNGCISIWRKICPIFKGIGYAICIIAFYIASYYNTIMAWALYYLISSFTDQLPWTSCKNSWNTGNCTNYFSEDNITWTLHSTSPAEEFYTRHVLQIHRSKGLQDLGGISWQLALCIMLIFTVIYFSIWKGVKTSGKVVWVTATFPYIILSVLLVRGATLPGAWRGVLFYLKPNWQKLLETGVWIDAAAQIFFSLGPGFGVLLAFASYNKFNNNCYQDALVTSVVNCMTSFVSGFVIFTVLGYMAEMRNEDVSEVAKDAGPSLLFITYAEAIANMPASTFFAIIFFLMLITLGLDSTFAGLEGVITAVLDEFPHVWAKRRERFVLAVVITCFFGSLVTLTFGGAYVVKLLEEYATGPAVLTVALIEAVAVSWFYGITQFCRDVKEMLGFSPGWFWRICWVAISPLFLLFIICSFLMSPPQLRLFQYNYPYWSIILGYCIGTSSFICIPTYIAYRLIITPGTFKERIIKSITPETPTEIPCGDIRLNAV
Sequence of Sodium-dependent noradrenaline transporter (P23975 whole entry): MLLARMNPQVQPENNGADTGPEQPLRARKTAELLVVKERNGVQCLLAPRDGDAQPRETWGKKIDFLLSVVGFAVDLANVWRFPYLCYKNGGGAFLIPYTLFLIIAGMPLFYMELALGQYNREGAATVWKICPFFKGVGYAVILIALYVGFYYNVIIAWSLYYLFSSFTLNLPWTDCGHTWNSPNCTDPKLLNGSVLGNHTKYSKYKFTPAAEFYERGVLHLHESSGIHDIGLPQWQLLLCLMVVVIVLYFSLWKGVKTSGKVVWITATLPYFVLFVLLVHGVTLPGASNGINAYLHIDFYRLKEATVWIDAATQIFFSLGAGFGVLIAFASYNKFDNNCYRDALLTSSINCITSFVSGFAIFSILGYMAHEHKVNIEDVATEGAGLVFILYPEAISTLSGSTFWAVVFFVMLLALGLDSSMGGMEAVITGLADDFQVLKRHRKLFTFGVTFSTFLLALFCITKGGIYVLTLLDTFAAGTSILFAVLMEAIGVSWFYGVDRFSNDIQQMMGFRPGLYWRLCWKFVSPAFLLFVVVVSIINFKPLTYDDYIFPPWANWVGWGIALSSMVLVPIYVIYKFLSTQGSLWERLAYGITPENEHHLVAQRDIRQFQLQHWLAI
T2 sequence (P23219 whole entry): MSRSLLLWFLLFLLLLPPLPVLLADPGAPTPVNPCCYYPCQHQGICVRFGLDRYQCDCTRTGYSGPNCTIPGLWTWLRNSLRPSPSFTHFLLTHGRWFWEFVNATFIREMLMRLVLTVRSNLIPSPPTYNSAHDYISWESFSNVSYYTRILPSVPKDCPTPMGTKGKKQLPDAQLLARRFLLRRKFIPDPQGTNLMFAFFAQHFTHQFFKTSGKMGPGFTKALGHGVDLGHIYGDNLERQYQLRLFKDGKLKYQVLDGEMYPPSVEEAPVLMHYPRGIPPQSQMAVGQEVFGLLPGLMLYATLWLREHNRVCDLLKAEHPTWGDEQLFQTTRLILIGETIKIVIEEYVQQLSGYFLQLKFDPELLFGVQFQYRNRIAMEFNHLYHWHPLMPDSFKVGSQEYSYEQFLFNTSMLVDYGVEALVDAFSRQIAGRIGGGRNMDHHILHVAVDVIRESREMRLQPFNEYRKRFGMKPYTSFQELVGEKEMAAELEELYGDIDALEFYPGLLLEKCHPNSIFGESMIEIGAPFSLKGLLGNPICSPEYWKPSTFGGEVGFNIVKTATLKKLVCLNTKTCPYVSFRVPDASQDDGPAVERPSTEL
Sequence of Mu-type opioid receptor (P35372 whole entry): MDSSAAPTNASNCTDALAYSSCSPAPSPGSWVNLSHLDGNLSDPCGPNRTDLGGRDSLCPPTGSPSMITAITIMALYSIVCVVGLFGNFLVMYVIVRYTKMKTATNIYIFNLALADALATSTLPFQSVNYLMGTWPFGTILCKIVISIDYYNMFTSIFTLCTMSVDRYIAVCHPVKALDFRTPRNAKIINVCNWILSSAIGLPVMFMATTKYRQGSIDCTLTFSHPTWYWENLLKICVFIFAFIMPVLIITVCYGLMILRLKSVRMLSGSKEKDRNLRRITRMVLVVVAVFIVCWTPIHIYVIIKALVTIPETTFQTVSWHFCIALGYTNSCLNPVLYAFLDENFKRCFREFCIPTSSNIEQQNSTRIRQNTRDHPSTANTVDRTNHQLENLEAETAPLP
Sequence of 5-hydroxytryptamine receptor 2B (P41595 whole entry): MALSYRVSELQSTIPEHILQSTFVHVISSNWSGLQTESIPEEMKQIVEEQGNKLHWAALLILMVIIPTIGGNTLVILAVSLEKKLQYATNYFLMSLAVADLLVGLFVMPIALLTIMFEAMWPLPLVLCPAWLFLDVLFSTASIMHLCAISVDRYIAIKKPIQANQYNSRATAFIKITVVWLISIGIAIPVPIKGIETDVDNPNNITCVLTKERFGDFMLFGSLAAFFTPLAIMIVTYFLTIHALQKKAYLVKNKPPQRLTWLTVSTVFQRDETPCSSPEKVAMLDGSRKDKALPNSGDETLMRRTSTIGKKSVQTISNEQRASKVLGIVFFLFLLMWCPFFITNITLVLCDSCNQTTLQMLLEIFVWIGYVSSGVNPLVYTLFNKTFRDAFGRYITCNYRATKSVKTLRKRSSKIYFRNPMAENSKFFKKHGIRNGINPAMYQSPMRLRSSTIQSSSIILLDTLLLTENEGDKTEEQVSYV
Sequence of 3',5'-cyclic-AMP phosphodiesterase 4A (P27815 whole entry): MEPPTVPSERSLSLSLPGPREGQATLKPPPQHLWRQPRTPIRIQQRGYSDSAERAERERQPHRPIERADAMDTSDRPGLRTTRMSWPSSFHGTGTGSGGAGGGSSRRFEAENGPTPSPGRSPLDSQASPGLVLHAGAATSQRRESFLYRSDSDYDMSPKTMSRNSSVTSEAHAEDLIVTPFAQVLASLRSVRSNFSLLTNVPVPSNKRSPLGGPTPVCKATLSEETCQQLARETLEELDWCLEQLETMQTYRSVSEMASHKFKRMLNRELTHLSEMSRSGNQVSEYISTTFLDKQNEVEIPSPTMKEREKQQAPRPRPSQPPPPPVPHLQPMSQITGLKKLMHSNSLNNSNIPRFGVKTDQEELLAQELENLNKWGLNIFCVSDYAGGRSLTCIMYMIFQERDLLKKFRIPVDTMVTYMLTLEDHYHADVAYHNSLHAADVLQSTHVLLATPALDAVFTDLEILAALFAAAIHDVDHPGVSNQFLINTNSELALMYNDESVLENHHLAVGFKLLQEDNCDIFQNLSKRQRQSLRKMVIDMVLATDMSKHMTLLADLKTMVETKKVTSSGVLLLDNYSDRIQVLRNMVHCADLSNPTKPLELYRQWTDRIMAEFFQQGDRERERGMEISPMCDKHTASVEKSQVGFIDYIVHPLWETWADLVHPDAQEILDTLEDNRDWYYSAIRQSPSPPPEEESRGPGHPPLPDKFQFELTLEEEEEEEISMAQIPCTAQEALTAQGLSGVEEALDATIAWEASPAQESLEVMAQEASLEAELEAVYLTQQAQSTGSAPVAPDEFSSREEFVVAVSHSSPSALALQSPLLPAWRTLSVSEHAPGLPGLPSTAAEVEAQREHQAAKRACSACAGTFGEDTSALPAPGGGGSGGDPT
Sequence of Histamine H3 receptor (Q9Y5N1 whole entry): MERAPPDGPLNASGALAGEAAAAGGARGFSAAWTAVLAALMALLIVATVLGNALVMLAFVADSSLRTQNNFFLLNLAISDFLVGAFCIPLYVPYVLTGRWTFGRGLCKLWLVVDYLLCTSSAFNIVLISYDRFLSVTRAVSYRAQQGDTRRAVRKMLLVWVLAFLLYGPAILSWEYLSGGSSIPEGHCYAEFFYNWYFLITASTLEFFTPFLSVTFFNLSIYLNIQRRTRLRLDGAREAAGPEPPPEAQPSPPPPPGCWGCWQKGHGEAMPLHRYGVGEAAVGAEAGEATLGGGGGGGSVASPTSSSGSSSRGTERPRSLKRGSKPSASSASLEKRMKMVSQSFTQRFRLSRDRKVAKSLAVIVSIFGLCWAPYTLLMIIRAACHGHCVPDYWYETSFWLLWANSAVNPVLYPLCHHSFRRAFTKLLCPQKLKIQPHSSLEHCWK

CCCCCCCC(=O)N[C@H](CN1CCCC1)[C@H](O)c1ccc2c(c1)OCCO2
AC50 [1]: > 30 µM
AC50 [2]: > 30 µM
AC50 [3]: 10.1 µM
AC50 (Estrogen receptor): > 30 µM
AC50 [4]: > 30 µM
AC50 [5]: 26.5 µM
AC50 [6]: > 30 µM
AC50 [7]: > 30 µM
AC50 [8]: > 30 µM
AC50 (Mu-type opioid receptor): 14.1 µM
AC50 [9]: 14.3 µM
AC50 (Histamine H3 receptor): > 30 µM

CC(C1=C(CCN(C)C)Cc2ccccc21)c1ccccn1 (configuration not stated)
AC50 [10]: 8.8 µM
AC50 [1]: > 30 µM
AC50 [2]: > 30 µM
AC50 [3]: > 30 µM
AC50 [4]: 11.9 µM
AC50 [5]: 19.4 µM
AC50 [6]: > 30 µM
AC50 [7]: 13.7 µM
AC50 [8]: 0.0784 µM
AC50 (Mu-type opioid receptor): 7.04 µM
AC50 [9]: 8.78 µM
AC50 (Histamine H3 receptor): 13.2 µM

CC(=O)OCC[N+](C)(C)C [ACETYLCHOLINE]
AC50 [10]: > 30 µM
AC50 [1]: > 30 µM
AC50 [2]: > 30 µM
AC50 [3]: > 30 µM
AC50 [4]: > 30 µM
AC50 [5]: > 30 µM
AC50 [6]: > 30 µM
AC50 [7]: > 30 µM
AC50 (Mu-type opioid receptor): > 30 µM
AC50 [9]: > 30 µM
AC50 (Histamine H3 receptor): > 30 µM

C[C@H](N)C(=O)O [ALANINE]
AC50 [10]: > 30 µM
AC50 [1]: > 30 µM
AC50 [2]: > 30 µM
AC50 [3]: > 30 µM
AC50 [4]: > 30 µM
AC50 [5]: > 30 µM
AC50 [6]: > 30 µM
AC50 [7]: > 30 µM
AC50 [8]: > 30 µM
AC50 (Mu-type opioid receptor): > 30 µM
AC50 [9]: > 30 µM
AC50 (Histamine H3 receptor): > 30 µM

O=C1c2c(O)cccc2Cc2cccc(O)c21 [ANTHRALIN]
AC50 [10]: > 30 µM
AC50 [1]: > 30 µM
AC50 [2]: 0.262 µM
AC50 [3]: 0.875 µM
AC50 [4]: > 3 µM
AC50 [5]: 14 µM
AC50 [6]: > 30 µM
AC50 [7]: > 3 µM
AC50 [8]: > 3 µM
AC50 (Mu-type opioid receptor): > 30 µM
AC50 [9]: > 30 µM
AC50 (Histamine H3 receptor): 28.9 µM

O=C(Nc1nc(-c2cc(Cl)cs2)c(N2CCN(C3CCCCC3)CC2)s1)c1cnc(N2CCC(C(=O)O)CC2)c(Cl)c1 [AVATROMBOPAG]
AC50 [1]: > 30 µM
AC50 [2]: > 30 µM
AC50 [3]: > 30 µM
AC50 (Estrogen receptor): > 30 µM
AC50 [4]: > 30 µM
AC50 [5]: 19.8 µM
AC50 [6]: > 30 µM
AC50 [7]: > 30 µM
AC50 [8]: > 30 µM
AC50 (Mu-type opioid receptor): > 30 µM
AC50 [9]: > 30 µM
AC50 (Histamine H3 receptor): > 30 µM

C[C@@H](O)[C@H]1C(=O)N2C(C(=O)[O-])=C(SC3Cn4cnc[n+]4C3)[C@H](C)[C@H]12 (some centres not stated) [BIAPENEM]
AC50 [10]: > 30 µM
AC50 [1]: > 30 µM
AC50 [2]: > 30 µM
AC50 [3]: > 30 µM
AC50 [4]: > 30 µM
AC50 [5]: > 30 µM
AC50 [6]: > 30 µM
AC50 [7]: > 30 µM
AC50 [8]: > 30 µM
AC50 (Mu-type opioid receptor): > 30 µM
AC50 [9]: > 30 µM
AC50 (Histamine H3 receptor): > 30 µM

CCCCOc1ccc(CC(=O)NO)cc1 [BUFEXAMAC]
AC50 [10]: > 30 µM
AC50 [1]: > 30 µM
AC50 [2]: 0.53 µM
AC50 [3]: > 30 µM
AC50 [4]: > 30 µM
AC50 [5]: > 30 µM
AC50 [6]: > 30 µM
AC50 [7]: > 30 µM
AC50 [8]: > 30 µM
AC50 (Mu-type opioid receptor): > 30 µM
AC50 [9]: > 30 µM
AC50 (Histamine H3 receptor): > 30 µM

Cc1onc(-c2c(Cl)cccc2Cl)c1C(=O)N[C@@H]1C(=O)N2[C@@H]1SC(C)(C)[C@@H]2C(=O)O [DICLOXACILLIN]
AC50 [10]: > 30 µM
AC50 [1]: > 30 µM
AC50 [2]: > 30 µM
AC50 [3]: > 30 µM
AC50 [4]: > 30 µM
AC50 [5]: > 30 µM
AC50 [6]: > 30 µM
AC50 [7]: > 30 µM
AC50 [8]: > 30 µM
AC50 (Mu-type opioid receptor): > 30 µM
AC50 [9]: > 30 µM
AC50 (Histamine H3 receptor): > 30 µM

CCCCC/C=C\C/C=C\C/C=C\CCCCC(=O)O [GAMOLENIC ACID]
AC50 [10]: > 30 µM
AC50 [1]: > 30 µM
AC50 [2]: > 30 µM
AC50 [3]: 4.91 µM
AC50 [4]: > 30 µM
AC50 [5]: 11.6 µM
AC50 [6]: > 30 µM
AC50 [7]: > 30 µM
AC50 [8]: > 30 µM
AC50 (Mu-type opioid receptor): > 30 µM
AC50 [9]: > 30 µM
AC50 (Histamine H3 receptor): > 30 µM

CC(N)CCCC(C)(C)O (configuration not stated) [HEPTAMINOL]
AC50 [10]: > 30 µM
AC50 [1]: > 30 µM
AC50 [2]: > 30 µM
AC50 [3]: > 30 µM
AC50 [4]: > 30 µM
AC50 [5]: > 30 µM
AC50 [6]: > 30 µM
AC50 [7]: > 30 µM
AC50 [8]: > 30 µM
AC50 (Mu-type opioid receptor): > 30 µM
AC50 [9]: > 30 µM
AC50 (Histamine H3 receptor): > 30 µM

Cc1cc(CCN2CCN(c3cccc(Cl)c3)CC2)n[nH]1 [MEPIPRAZOLE]
AC50 [1]: > 30 µM
AC50 [2]: > 30 µM
AC50 [3]: > 30 µM
AC50 (Estrogen receptor): > 30 µM
AC50 [4]: > 30 µM
AC50 [5]: > 30 µM
AC50 [6]: > 30 µM
AC50 [7]: 3.8 µM
AC50 [8]: > 30 µM
AC50 (Mu-type opioid receptor): 15.7 µM
AC50 [9]: 0.003 µM
AC50 (Histamine H3 receptor): > 30 µM

CC[N+](C)(CC)CCOC(=O)C1c2ccccc2Oc2ccccc21 [METHANTHELINE]
AC50 [10]: > 30 µM
AC50 [1]: > 30 µM
AC50 [2]: > 30 µM
AC50 [3]: > 30 µM
AC50 [4]: > 30 µM
AC50 [5]: > 30 µM
AC50 [6]: > 30 µM
AC50 [7]: > 30 µM
AC50 [8]: 0.0126 µM
AC50 (Mu-type opioid receptor): > 30 µM
AC50 [9]: > 30 µM
AC50 (Histamine H3 receptor): > 30 µM

CCN(CC)CCOC(=O)C(Cc1cccc2ccccc12)CC1CCCO1 (configuration not stated) [NAFRONYL]
AC50 [10]: > 30 µM
AC50 [1]: > 30 µM
AC50 [2]: > 30 µM
AC50 [3]: > 30 µM
AC50 [4]: > 30 µM
AC50 [5]: > 30 µM
AC50 [6]: > 30 µM
AC50 [7]: 28.4 µM
AC50 [8]: 0.199 µM
AC50 (Mu-type opioid receptor): 7.16 µM
AC50 [9]: > 30 µM
AC50 (Histamine H3 receptor): > 30 µM

Reference: ChEMBL document CHEMBL5291721, “A preclinical secondary pharmacology resource illuminates target-adverse drug reaction associations of marketed drugs” (Nat Commun, 2023)
